Experimental data taken from ChEMBL document CHEMBL1144649, “2-cyanoaminopyrimidines as a class of antitumor agents that promote tubulin polymerization” (Bioorg Med Chem Lett, 2007).
Active and inactive are the calls of the source. The calls are words filed in the database; no cut-off is given here.

How the values were obtained:
[1] = Antiproliferative activity against KBV1cells; type: functional, cell-based; details: Homo sapiens, KB-V1
[2] = Ratio of IC50 for KB V1 cells to IC50 for KB cells
[3] = Antiproliferative activity against KB8.5 cells; type: functional, cell-based; details: Homo sapiens
KB [4] = assay: Ratio of IC50 for KB8.5 cells to IC50 for KB cells; type: functional, Homo sapiens
COLO 205 = assay: Cytotoxicity against COLO205 cells; type: functional, cell-based; details: Homo sapiens
KB [5] = assay: Antiproliferative activity against KB cells; type: functional, cell-based; details: Homo sapiens
Tubulin (Homo sapiens) [6] = target: T1, Tubulin (Homo sapiens) (UniProt P68371+Q9H4B7+P0DPH7+P68366+Q13509+Q71U36+P04350+Q3ZCM7+P07437+P68363+Q9BQE3+Q6PEY2+Q13885+Q9BVA1+Q9BUF5); assay: Stimulation of MAP-rich tubulin polymerization; type: protein-complex assay
[7] = Solubility in water at pH 7.4; type: physicochemical
[8] = Stability in nude mouse microsomes after 30 mins; type: ADME, Microsome; details: read-out: Stability
Tubulin (Homo sapiens) [9] = target: T1, Tubulin (Homo sapiens); assay: Stimulation of tubulin polymerization; type: protein-complex assay

Row | Structure (SMILES) | IC50 [1] | IC50 [3] | Ratio IC50 (KB [4]) | IC50 (COLO 205) | also measured
1 | CC[C@]1(O)C[C@H]2CN(CCc3c([nH]c4ccccc34)[C@@](C(=O)OC)(c3cc4c(cc3OC)N(C=O)[C@H]3[C@@](O)(C(=O)OC)[C@H](OC(C)=O)[C@]5(CC)C=CCN6CC[C@]43[C@@H]65)C2)C1 [VINCRISTINE] | 2040 nM | 58 nM | 26 |  | Ratio IC50 [2]: 925
2 | C=CCN(C#N)c1nc(Cl)c(-c2c(F)cc(F)cc2F)c(NCC(F)(F)F)n1 |  |  |  | 477 nM | 
3 | CN(C)CCOc1cc(F)c(-c2c(Cl)nc(N(C)C#N)nc2NCC(F)(F)F)c(F)c1 |  |  |  | 532 nM | 
4 | CN(C#N)c1nc(Cl)c(-c2c(F)cc(F)cc2F)c(NCC(F)(F)F)n1 |  |  |  | 214 nM | 
5 | C[C@H](Nc1nc(N(C)C#N)nc(Cl)c1-c1c(F)cc(OCCCN(C)C)cc1F)C(F)(F)F | 82 nM | 59 nM | 2.5 | 36 nM | Ratio IC50 [2]: 3.5; IC50 (KB [5]): 24 nM; Activity (Tubulin (Homo sapiens) [6]): Active; solubility [7]: > 100 µg/mL; remaining at 0.5 h [8]: 92%; Activity (Tubulin (Homo sapiens) [9]): Active
6 | CN(C)CCCOc1cc(F)c(-c2c(Cl)nc(N(C)C#N)nc2NCC(F)(F)F)c(F)c1 |  |  |  | 52 nM | 
7 | CNCCCOc1cc(F)c(-c2c(Cl)nc3ncnn3c2N[C@@H](C)C(F)(F)F)c(F)c1.Cl |  | 67 nM | 2.9 |  | 
8 | CN(C)CCCCOc1cc(F)c(-c2c(Cl)nc(N(C)C#N)nc2NCC(F)(F)F)c(F)c1 |  |  |  | 229 nM | 
9 | CC(=O)O[C@H]1C(=O)[C@@]2(C)[C@H]([C@H](OC(=O)c3ccccc3)[C@]3(O)C[C@H](OC(=O)[C@H](O)[C@@H](NC(=O)c4ccccc4)c4ccccc4)C(C)=C1C3(C)C)[C@]1(OC(C)=O)CO[C@@H]1C[C@@H]2O [PACLITAXEL] | 2010 nM |  |  |  | 
10 | CCN(C#N)c1nc(Cl)c(-c2c(F)cc(F)cc2F)c(NCC(F)(F)F)n1 |  |  |  | 304 nM | 
